Data as given in patent US20090215693A1, “METHODS FOR INCREASING HYALURONIC ACID LEVELS AND IMPROVING MOISTURE RETENTION IN TISSUE” (priority 2008, published 2009).

System: Fibroblasts
Assay: Hyaluronic acid production by cultured fibroblasts (ELISA of culture medium)
Type: cell-based
Settings: fibroblasts, 48 hours incubation, culture medium
Description: Fibroblasts were seeded into individual wells of a 12-well plate in 1.0 ml of Fibroblast Growth Media (FGM) and incubated overnight at 37±2° C. and 5±1% CO2. On the following day the media was removed via aspiration to eliminate non-adherent cells and replaced with 1.0 ml of fresh FGM. Cells were grown until confluent, with a media change every 48 to 72 hours. Upon reaching confluency the cells were treated for 24 hours with DMEM supplemented with 1.5% FBS to eliminate growth factors from the normal culture media. After this 24-hour wash-out period the cells were treated with the indicated test materials (i.e., milk-derived products containing lactoferrin) at the specified concentrations dissolved in FGM with 1.5% FBS. Dibutyrl cAMP (DBcAMP) at 0.1 mM was used as a positive control. Untreated cells (negative control) received FGM with 1.5% FBS. The cells were incubated for 48 hours and at the end of the incubation period cell culture medium was collected and either stored frozen (−75° C.) or assayed immediately. All testing was done in triplicate.
A series of hyaluronic acid standards from 50 ng/ml to 3,200 ng/ml was prepared. […] After incubation, 50 μl of stop solution was added to each well and the absorbance was measured at 405 nm using a plate reader. Hyaluronic acid production was expressed as ng/ml and results are shown in Table 1 and the graph of FIG. 1.

Row | SMILES | HA Measured (amount applied 0.1 mM (positive control)) | HA Measured (amount applied 4 mM)
1 | CCCC(=O)Nc1ncnc2c1ncn2[C@@H]1O[C@@H]2COP(=O)(O)O[C@H]2[C@H]1OC(=O)CCC [DBcAMP, dibutyryl cyclic AMP] | 416 ± 24 ng/mL | 
2 | CCCC(=O)[O-].[Na+] [Sodium Butyrate] |  | 139 ± 6 ng/mL
